# Test results reported in patent US20180250284A1, “QUINOLINE DERIVATIVES FOR USE IN TREATING LEUKODYSTROPHY AND TREATMENT METHOD” (GEORG-AUGUST-UNIVERSITÄT GÖTTINGEN STIFTUNG ÖFFENTLICHEN …, priority 2015, published 2018).
# Experiments:
# [1] = test system: Patients with leukodystrophy; assay: trial of laquinimod in leukodystrophy human patients; assay type: in vivo; details: capsules orally once daily
# Procedure: A trial is conducted to evaluate the safety, tolerability and clinical effect of laquinimod in leukodystrophy human patients. Patients with leukodystrophy are enrolled. The patient has been affirmatively diagnosed to have leukodystrophy. […] Capsule(s) containing laquinimod and/or matching placebo are administered orally once daily at dosages approved by the study Safety Committee. Patients are randomized into one of the treatment arms in a ratio that allows for reaching an overall target enrollment.
# [2] = test system: microglia cells stimulated with 1 μg/ml LPS and 5 mM ATP; assay: IL1β ELISA of supernatants of LPS/ATP stimulated microglia cells; assay type: cell-based; details: at high concentrations of laquinimod
# Procedure: FIG. 3: Titration of laquinimod to microglia cells stimulated with 1 μg/ml LPS and 5 mM ATP. Microglia cell supernatants were analyzed for IL1β by ELISA.
# Patients with PBD = assay: trial of laquinimod for PBD in human patients; assay type: in vivo
# Procedure: A trial is conducted to evaluate the safety, tolerability and clinical effect of laquinimod for PBD in human patients. Patients with PBD are enrolled. The patient has been affirmatively diagnosed to have PBD. […] Capsule(s) containing laquinimod and/or matching placebo are administered orally once daily at dosages approved by the study Safety Committee. Patients are randomized into one of the treatment arms in a ratio that allows for reaching an overall target enrollment.
# [3] = test system: Cnp-Cre Pex5^fl/fl Rag1^−/− mice; assay: histological and morphological analyses of the corpus callosum at month 6; assay type: in vivo; details: 25 mg/kg oral; for extent of demyelination / myelin loss in the corpus callosum: luxol fast blue, vs vehicle/water treated mice
# Procedure: FIG. 2: Quantification of axonal damage (APP), microglia/macrophage cell numbers (Mac3), demyelination and adult oligodendrocytes (NogoA) in the corpus callosum (CC) of CNP-Cre Pex^fl/fl RAG1^−/− mice at the age of 6 months. Cnp-Cre Pex5^fl/fl Rag1^−/− mice were generated by crossbreeding of Cnp-Cre Pex5^fl/fl mice with Rag1^−/− mice. Mice of both sexes received 25 mg/kg Laquinimod or water by oral gavage 6 out 7 days/week and treatment was initiated at the age of 6 weeks. Mice were perfused transcardially at month 6 with cold PBS followed by 4% paraformaldehyde (PFA). Brains and spinal cords were post-fixed for 2 days and then paraffin-embedded. Sections between 0.5-1 μm were cut and processed for immunohistochemistry (IHC) according to standard protocols. Demyelination was evaluated on sections stained with luxol fast blue (LFB). For the staining of macrophages the antibody MAC387 (mouse anti-L1 antibody MAC387, GeneTex, 1:150) was used. Axonal density was evaluated on Bielschowsky silver stained sections. That is, in order to identify the mechanisms how laquinimod is beneficial in the CNP-Cre Pex^fl/fl RAG1^−/− mouse model, we analyzed and quantified the extent of demyelination, axonal damage and macrophage and adult oligodendrocyte numbers in immunohistochemically stained sections of the corpus callosum at month 6 in laquinimod and vehicle treated mice. […] The extent of demyelination was diminished and the numbers of preserved adult oligodendrocytes were increased, see FIG. 2.
# EAE model = details: cited from earlier work
# [4] = test system: multiple sclerosis (MS) patients; details: two phase III trials; cited from earlier work
# cuprizone model = details: cited from earlier work
# [5] = test system: Cnp-Cre Pex5^fl/fl Rag1^−/− mice; assay: balanced beam test (motor coordination / walking ability); assay type: in vivo; details: 25 mg/kg oral gavage 6 out 7 days/week from age 6 weeks to month 6; vs H2O treated controls; significant from the age of 4 months
# Procedure: Cnp-Cre Pex5^fl/fl Rag1^−/− mice received either H2O (Ctrl, n=18) or laquinimod (25 mg/kg, n=11) at 6 out 7 days/week by oral gavage. Treatment was initiated at the age of 6 weeks. Unpaired t test, **<0.01; ***<0.001. Cnp-Cre Pex5^fl/fl Rag1^−/− mice were generated by crossbreeding of Cnp-Cre Pex5^fl/fl mice with Rag1^−/− mice. Mice of both sexes received 25 mg/kg Laquinimod or water by oral gavage 6 out 7 days/week and treatment was initiated at the age of 6 weeks. Motor coordination was assessed with a balanced beam test. Mice were put on a beam (width 1.5 cm) and allowed to run toward a hiding box. After a training period, the time to pass a distance of 0.6 m was measured (three repeats per time point).
# [6] = test system: Knockout mice (Cnp-Pex5, Cnp1-Cre*PEX5flox/flox, Pex5^flox/flox*Cnp-Cre/+, Nestin-Pex5, NEX-Pex5, GFAP-Pex5^−/−); assay: effect of various doses of laquinimod on Pex5 knockout mice; assay type: in vivo
# Procedure: Knockout mice of one or more of the following strains are used: Cnp-Pex5, Cnp1-Cre*PEX5flox/flox, Pex5^flox/flox*Cnp-Cre/+, Nestin-Pex5, NEX-Pex5, and GFAP-Pex5^−/−.
# The effect of various doses of laquinimod on knockout mice is assessed.
# [7] = in vivo; cited from earlier work
# [8] = capsules orally once daily, human patients
# [9] = age of 6 months, vs vehicle treated mice
smiles,measurement,setting,value
"CCN(C(=O)c1c(O)c2c(Cl)cccc2n(C)c1=O)c1ccccc1 [laquinimod, 5-chloro-N-ethyl-4-hydroxy-1-methyl-2-oxo-N-phenyl-1,2-dihydroquinoline-3-carboxamide]",motor symptoms of leukodystrophy,[1],alleviates or eliminates
same,one or more symptoms of leukodystrophy,[1],alleviates or eliminates
same,amount of IL1β in LPS stimulated microglia cell cultures,[2],significantly reduced
same,motor symptoms of PBD,Patients with PBD; [8],alleviates or eliminates
same,one or more symptoms of PBD,Patients with PBD; [8],alleviates or eliminates
same,symptoms of Zellweger Syndrome (ZS),"Patients with PBD; humans, Example 3.1",alleviates or eliminates
same,symptoms of Neonatal Adrenoleukodystrophy (NALD),"Patients with PBD; humans, Example 3.2",alleviates or eliminates
same,symptoms of Infantile Refsum Disease (IRD),"Patients with PBD; humans, Example 3.3",alleviates or eliminates
same,extent of demyelination / myelin loss in the corpus callosum,[3]; age of 6 months,less extensive
same,extent of demyelination / myelin loss in the corpus callosum,"[3]; age of 6 months, listed as Laquinimod",diminished
same,axonal damage (APP positive axons) in the corpus callosum,[3]; [9],significantly reduced
same,microglia/macrophage cell numbers (Mac3) in the corpus callosum,[3]; [9],significantly reduced
same,numbers of preserved adult oligodendrocytes (NogoA) in the corpus callosum,[3]; [9],increased
same,microglia activation,[3]; vs water treated controls,reduced
same,preservation of axons (axonal loss),[3]; vs water treated controls,better preserved
same,microglia activation,"[3]; vs water treated controls, listed as Laquinimod",less abundant
same,axonal injury,EAE model,reduces
same,microglia and astrocyte activation,EAE model,inhibits
same,safety and tolerability profile,[4],favorable
same,demyelination,cuprizone model,reduces
same,microglia and astrocyte activation,cuprizone model,inhibits
same,walking ability / motor coordination on elevated beam test,[5],significantly better
same,"accumulation of lipid droplets and VLCFA, depletion of plasmalogens, impairment of myelin, axonal degeneration, astrogliosis, and/or microgliosis",[6],reduces
same,cognitive function,[6],improves
same,"hindlimb ataxia, kyphosis, hindlimb paresis, forelimb ataxia, tremor, hindlimb paralysis, and/or passiveness",[6],reduces
same,motor function,[6],improves
same,oral bioavailability,[7],high
